# Values of other authors in patent US9155308B2, “Agricultural pesticide formulation” (priority 2013, dated 2015).
# Settings: based on animal studies
structure (smiles),measurement,setting,value
"Cc1c(COC(=O)[C@@H]2[C@H](/C=C(\Cl)C(F)(F)F)C2(C)C)cccc1-c1ccccc1 (racemic) [bifenthrin, Bifenthrin]",chronic reference dose (RfD),daily exposure,0.013 mg/kg bodyweight/day
same,acute reference dose (RfD),one-time exposure,0.328 mg/kg bodyweight/day
